Results: PMC11017388 (ACS Medicinal Chemistry Letters, 2024)
Like-named read-outs stand apart in the source and are kept apart here.

Columns and labels:
PKa [1] = target: T1, PKa (Homo sapiens, UniProt P03952); conditions: competitive, reversible inhibitor; cited from earlier work
plasma kallikrein (PKa) = plasma kallikrein (PKa) (Homo sapiens, UniProt P03952); test: Isolated enzyme potency against PKa, IC50 after enzyme/inhibitor preincubation time course; conditions: for Inhibition of PKa (in words): preincubation time course
plasma kallikrein (PKa), sequence (P03952 391-638 limits assumed): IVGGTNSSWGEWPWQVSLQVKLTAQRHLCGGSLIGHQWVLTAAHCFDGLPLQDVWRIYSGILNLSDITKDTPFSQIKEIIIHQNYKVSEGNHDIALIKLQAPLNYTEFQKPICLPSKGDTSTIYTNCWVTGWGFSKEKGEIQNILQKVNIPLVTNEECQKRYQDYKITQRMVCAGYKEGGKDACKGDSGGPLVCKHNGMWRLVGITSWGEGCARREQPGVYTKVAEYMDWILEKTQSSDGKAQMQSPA
plasma kallikrein (PKa), sequence (P03952 20-390 partner limits assumed): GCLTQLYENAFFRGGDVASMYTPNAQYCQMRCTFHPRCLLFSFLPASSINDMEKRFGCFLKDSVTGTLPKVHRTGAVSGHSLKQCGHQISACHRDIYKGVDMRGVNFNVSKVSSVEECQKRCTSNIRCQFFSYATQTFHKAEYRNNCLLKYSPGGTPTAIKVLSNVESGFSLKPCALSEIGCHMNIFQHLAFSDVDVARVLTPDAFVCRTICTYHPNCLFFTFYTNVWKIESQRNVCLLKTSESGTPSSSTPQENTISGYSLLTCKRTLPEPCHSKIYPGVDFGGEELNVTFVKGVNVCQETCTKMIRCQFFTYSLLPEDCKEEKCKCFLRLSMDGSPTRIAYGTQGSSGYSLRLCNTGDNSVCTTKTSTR
Protocol: (§1) Isolated enzyme potency was determined against PKa and FXIIa, using FXIIa as a test for the selective binding interaction with PKa.

[2] = Stability in DMSO and aqueous media (LCMS observation); assay type: physicochemical; conditions: protodeborylation observed by LCMS
FXIIa = target: T2, FXIIa (Homo sapiens, UniProt P00748); test: Isolated enzyme potency against FXIIa, preincubation time course; conditions: for IC50: read-out: FXIIa IC50; for Inhibition of FXIIa activity (in words): time course experiments
T2 sequence (P00748 373-615 limits assumed): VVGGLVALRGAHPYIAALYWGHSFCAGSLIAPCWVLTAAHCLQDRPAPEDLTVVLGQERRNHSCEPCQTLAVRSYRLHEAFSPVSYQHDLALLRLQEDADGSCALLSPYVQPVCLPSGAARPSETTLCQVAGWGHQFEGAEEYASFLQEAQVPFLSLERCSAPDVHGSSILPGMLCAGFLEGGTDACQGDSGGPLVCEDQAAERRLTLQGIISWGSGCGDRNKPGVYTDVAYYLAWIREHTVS
Protocol: as §1

[3] = NMR stability study of pinacol boronate in PBS buffer; assay type: physicochemical; conditions: pH7.4 phosphate buffer (D2O)
Protocol: Molecular docking experiments were conducted to visualize the potential binding mode of 20. However, it soon became apparent that the pinacol boronate group was too large to fit into the Ser195 subpocket. Having previously experienced hydrolysis of the pinacol boronate during purification, model substrate 17b was used to study the stability of the pinacol boronate in PBS buffer by NMR (see Supporting Information Figure S1).

FXIa = FXIa (Homo sapiens, UniProt P03951); test: Time-dependent potency determination against FXIa; assay type: biochemical
FXIa, sequence (P03951 388-625 limits assumed): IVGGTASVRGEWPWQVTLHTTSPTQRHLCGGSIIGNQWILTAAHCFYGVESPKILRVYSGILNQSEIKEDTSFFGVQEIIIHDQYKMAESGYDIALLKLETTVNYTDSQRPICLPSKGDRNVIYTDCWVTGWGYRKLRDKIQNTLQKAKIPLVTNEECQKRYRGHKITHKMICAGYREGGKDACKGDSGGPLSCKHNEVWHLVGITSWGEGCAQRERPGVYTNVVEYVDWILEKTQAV
FXIa, sequence (P03951 19-387 partner limits assumed): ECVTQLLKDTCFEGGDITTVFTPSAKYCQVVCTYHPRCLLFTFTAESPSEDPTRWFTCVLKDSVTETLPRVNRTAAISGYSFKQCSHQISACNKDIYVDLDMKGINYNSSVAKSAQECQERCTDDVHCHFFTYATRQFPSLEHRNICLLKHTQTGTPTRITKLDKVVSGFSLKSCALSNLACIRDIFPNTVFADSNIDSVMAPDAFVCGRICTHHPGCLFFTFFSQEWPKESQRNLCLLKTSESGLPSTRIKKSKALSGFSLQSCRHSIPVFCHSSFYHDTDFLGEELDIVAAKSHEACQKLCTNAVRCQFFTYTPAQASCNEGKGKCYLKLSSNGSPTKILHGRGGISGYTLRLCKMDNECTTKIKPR
Description: S5: Pharmacology: Material and Methods :

Thrombin = Thrombin (Homo sapiens, UniProt P00734); test: Time-dependent potency determination against thrombin
Protocol: (§2) Time-dependent potency determination was carried out against FXIa, thrombin, trypsin, and plasmin to further evaluate the selectivity of compounds (Table 3).

Plasmin = Plasmin (Homo sapiens, UniProt P00747); test: Time-dependent potency determination against plasmin
Plasmin, sequence (P00747 581-810 limits assumed, species assumed): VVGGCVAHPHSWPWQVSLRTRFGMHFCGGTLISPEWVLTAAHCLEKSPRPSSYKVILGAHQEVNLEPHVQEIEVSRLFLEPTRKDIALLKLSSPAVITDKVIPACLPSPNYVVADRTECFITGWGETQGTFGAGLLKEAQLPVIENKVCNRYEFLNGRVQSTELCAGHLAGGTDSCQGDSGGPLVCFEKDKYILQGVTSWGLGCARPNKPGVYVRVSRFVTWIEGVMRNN
Plasmin, sequence (P00747 97-580 partner limits assumed, species assumed): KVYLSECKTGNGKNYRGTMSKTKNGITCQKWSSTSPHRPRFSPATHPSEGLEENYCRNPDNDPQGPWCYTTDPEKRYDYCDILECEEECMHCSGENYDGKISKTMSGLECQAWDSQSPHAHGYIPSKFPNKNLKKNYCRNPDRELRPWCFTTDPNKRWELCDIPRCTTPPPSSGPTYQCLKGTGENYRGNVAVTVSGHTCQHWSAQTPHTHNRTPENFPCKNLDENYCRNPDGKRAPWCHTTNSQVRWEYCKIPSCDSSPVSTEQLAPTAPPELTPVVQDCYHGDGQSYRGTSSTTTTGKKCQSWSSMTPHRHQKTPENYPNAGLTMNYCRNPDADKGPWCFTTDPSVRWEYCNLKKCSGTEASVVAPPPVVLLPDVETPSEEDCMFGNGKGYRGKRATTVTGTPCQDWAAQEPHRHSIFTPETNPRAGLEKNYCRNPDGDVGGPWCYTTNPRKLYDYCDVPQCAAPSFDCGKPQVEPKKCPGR
Protocol: as §2

PKa [4] = target: T1, PKa; test: Compound dissociation assay (jump dilution); conditions: 62.5-fold dilution after 10 min preincubation; monitored over 600 s with fluorogenic substrate
Trypsin = test: Time-dependent potency determination against trypsin; conditions: read-out: Trypsin IC50
Protocol: as §2

[5] = target: phosophodiesterase 4 (PDE4) enzyme; design: method as in PMID 19303290; conditions: read-out: potency; cited from earlier work
[6] = design: method as in PMID 34282650; conditions: 150 mg daily dose, clinical studies; cited from earlier work
[7] = read-out: PKa IC50, 5 min preincubation
[8] = read-out: PKa IC50, 60 min preincubation
[9] = read-out: Thrombin IC50, 10 min preincubation
[10] = read-out: Thrombin IC50, 60 min preincubation
[11] = Plasmin IC50, 1 min preincubation
[12] = Plasmin IC50, 10 min preincubation
[13] = Plasmin IC50, 60 min preincubation
[14] = read-out: PKa IC50, 1 min preincubation
[15] = read-out: PKa IC50, 10 min preincubation

T1 sequence (P03952 391-638 limits assumed): as the sequence (P03952 391-638 limits assumed) above
T1 sequence (P03952 20-390 partner limits assumed): as the sequence (P03952 20-390 partner limits assumed) above

| Molecule | IC50 (plasma kallikrein (PKa); [8]) [nM] | IC50 (FXIa; 1 min preincubation) [µM] | IC50 (FXIa; 10 min preincubation) [µM] | IC50 (FXIa; 60 min preincubation) [µM] | IC50 (Thrombin) [µM] | IC50 (Thrombin; [9]) [µM] | IC50 (Thrombin; [10]) [µM] | IC50 (Plasmin; [11]) [µM] | IC50 (Plasmin; [12]) [µM] | IC50 (Plasmin; [13]) [µM] | IC50 (plasma kallikrein (PKa); [14]) [nM] | IC50 (plasma kallikrein (PKa); [15]) [nM] | also measured |
| --- | --- | --- | --- | --- | --- | --- | --- | --- | --- | --- | --- | --- | --- |
| Cc1cc(N)nc(C)c1CNC(=O)c1cnn(Cc2ccc(Cn3cccn3)cc2)c1 [Compound 11] | – | – | – | – | – | – | – | – | – | – | – | – | IC50 (PKa [1]): 2 nM |
| CC1(C)OB(C(N)c2cccc(Cl)c2)OC1(C)C.Cl (centres unmarked) [Compound 15a] | > 400000 | – | – | – | – | – | – | – | – | – | – | – | Inhibition of PKa (in words) (plasma kallikrein (PKa)): no activity; IC50 (plasma kallikrein (PKa); [7]): > 400000 nM; Stability in DMSO / aqueous media [2]: unstable over time in DMSO; IC50 (FXIIa; 5 min preincubation): > 400 µM; IC50 (FXIIa; 60 min preincubation): > 400 µM |
| CC1(C)OB(C(NC(=O)c2cnn(Cc3ccccc3)c2)c2cccc(Cl)c2)OC1(C)C (centres unmarked) [Compound 17a] | – | – | – | – | – | – | – | – | – | – | – | – | IC50 (FXIIa; 5 min preincubation): > 400 µM; IC50 (FXIIa; 60 min preincubation): > 400 µM |
| Cc1ccc(C(NC(=O)c2cnn(Cc3ccccc3)c2)B2OC(C)(C)C(C)(C)O2)c(F)c1 (centres unmarked) [Compound 17b] | – | – | – | – | – | – | – | – | – | – | – | – | Stability of the pinacol boronate in PBS buffer by NMR [3]: rapidly hydrolyzed; IC50 (FXIIa; 5 min preincubation): > 400 µM; IC50 (FXIIa; 60 min preincubation): > 400 µM |
| O=C(NC(B(O)O)c1cccc(Cl)c1)c1cnn(Cc2ccccc2)c1 (centres unmarked) [Compound 18] | > 400000 | – | – | – | – | – | – | – | – | – | – | – | Inhibition of PKa (in words) (plasma kallikrein (PKa)): no activity; IC50 (plasma kallikrein (PKa); [7]): > 400000 nM; Stability in DMSO / aqueous media [2]: instability in DMSO and aqueous media; IC50 (FXIIa; 5 min preincubation): > 400 µM; IC50 (FXIIa; 60 min preincubation): > 400 µM; Inhibition of FXIIa activity (in words) (FXIIa): no activity |
| CC1(C)OB(C(NC(=O)c2cnn(Cc3ccc(Cn4cccn4)cc3)c2)c2cccc(Cl)c2)OC1(C)C (centres unmarked) [Compound 19] | – | > 40 | > 40 | > 40 | > 40 | > 40 | > 40 | > 40 | > 40 | > 40 | – | – | – |
| Cc1ccc(C(NC(=O)c2cnn(Cc3ccc(Cn4cccn4)cc3)c2)B2OC(C)(C)C(C)(C)O2)c(F)c1 (centres unmarked) [Compound 20] | 0.3 | 18.8 | 16.5 | 12.2 | > 40 | > 40 | > 40 | 22 | 19.8 | 12.1 | 66 | 6.9 | Inhibitor dissociation from PKa (PKa [4]): no apparent reversibility; IC50 (plasma kallikrein (PKa)): 0.33 nM; IC50 (plasma kallikrein (PKa); read-out: PKa IC50, 2 h, extended time course): 0.29 nM; IC50 (plasma kallikrein (PKa); read-out: PKa IC50, 24 h): 0.07 nM; IC50 (Trypsin; 1 min preincubation): > 40 µM; IC50 (Trypsin; 10 min preincubation): > 40 µM; IC50 (Trypsin; 60 min preincubation): > 40 µM; Inhibition of FXIIa activity (in words) (FXIIa): no effect |
| Cc1ccc(C(NC(=O)c2cnn(Cc3ccc(Cn4ccccc4=O)cc3)c2)B2OC(C)(C)C(C)(C)O2)c(F)c1 (centres unmarked) [Compound 21] | 1.9 | – | – | – | – | – | – | – | – | – | 94 | 17 | – |
| O=C(NCc1cccc(Cl)c1)c1cnn(Cc2ccc(Cn3cccn3)cc2)c1 [Compound 24] | > 40000 | > 40 | > 40 | > 40 | > 40 | > 40 | > 40 | > 40 | > 40 | > 40 | > 40000 | > 40000 | Inhibitor dissociation from PKa (PKa [4]): rapid dissociation; Inhibition of PKa (in words) (plasma kallikrein (PKa)): no PKa inhibition; IC50 (Trypsin; 1 min preincubation): > 40 µM; IC50 (Trypsin; 10 min preincubation): > 40 µM; IC50 (Trypsin; 60 min preincubation): > 40 µM |
| O=C(NCc1cccc(Cl)c1)c1cnn(Cc2ccc(Cn3ccccc3=O)cc2)c1 [Compound 25] | 278 | – | – | – | – | – | – | – | – | – | 270 | 284 | – |
| Cc1ccc(CNC(=O)c2cnn(Cc3ccc(Cn4cccn4)cc3)c2)c(F)c1 [Compound 26] | 196 | > 40 | > 40 | > 40 | > 40 | > 40 | > 40 | > 40 | > 40 | > 40 | 199 | 203 | Inhibitor dissociation from PKa (PKa [4]): rapid dissociation; IC50 (Trypsin; 1 min preincubation): > 40 µM; IC50 (Trypsin; 10 min preincubation): > 40 µM; IC50 (Trypsin; 60 min preincubation): > 40 µM |
| Cc1ccc(CNC(=O)c2cnn(Cc3ccc(Cn4ccccc4=O)cc3)c2)c(F)c1 [Compound 27] | 35 | – | – | – | – | – | – | – | – | – | 37 | 37 | – |
| O=C(/C=C/c1cccc(Cl)c1)c1cnn(Cc2ccc(Cn3cccn3)cc2)c1 [Compound 29] | > 40000 | – | – | – | – | – | – | – | – | – | > 40000 | > 40000 | – |
| CC1(C)OB(C(CC(=O)c2cnn(Cc3ccc(Cn4cccn4)cc3)c2)c2cccc(Cl)c2)OC1(C)C (centres unmarked) [Compound 31] | – | > 40 | > 40 | > 40 | > 40 | > 40 | > 40 | > 40 | > 40 | > 40 | – | – | – |
| Cc1ccc(C(CC(=O)c2cnn(Cc3ccc(Cn4cccn4)cc3)c2)B2OC(C)(C)C(C)(C)O2)c(F)c1 (centres unmarked) [Compound 32] | – | > 40 | > 40 | > 40 | > 40 | > 40 | > 40 | > 40 | > 40 | > 40 | – | – | – |
| N#Cc1ccc(Oc2ccc3c(c2)COB3O)cc1 [Crisaborole] | – | – | – | – | – | – | – | – | – | – | – | – | IC50 [5]: 490 nM |
| N#Cc1cccc([C@@H](NCC2CC2)c2ccc(F)c(NC(=O)c3cc(C(F)(F)F)nn3-c3cccc(CN)c3)c2)c1 [berotralstat] | – | – | – | – | – | – | – | – | – | – | – | – | Efficacy as an oral prophylactic for HAE [6]: efficacious |
| D-Phe-Pro-Arg-chloromethylketone [Compound 23, reference compound] | – | > 40 | > 40 | > 40 | – | – | – | – | – | – | – | – | IC50 (Plasmin; read-out: Plasmin IC50, 1 min preincubation): 3.64 µM; IC50 (Plasmin; read-out: Plasmin IC50, 10 min preincubation): 1.22 µM; IC50 (Plasmin; read-out: Plasmin IC50, 60 min preincubation): 0.248 µM |
